Results taken from ChEMBL document CHEMBL5365539, “Selective modifications of lactose and N-acetyllactosamine with sulfate and aromatic bulky groups unveil unique structural insights in galectin-1-ligand recognition” (Bioorg Med Chem, 2023).

Experiments:
[1] = molecular target: T1, Galectin-1 (Homo sapiens, UniProt P09382); experiment: Potency index, ratio of test compound IC50 to (2S,3R,4S,5R,6R)-2-(((2R,3S,4R,5R,6R)-4,5 dihydroxy-2-(hydroxymethyl)-6 methoxytetrahydro-2H-pyran-3-yl)oxy)-6(hydroxymethyl)tetrahydro-2H-pyran-3,4,5-triol IC50 for inhibition of asialofetuin binding to human recombinant Gal-1 transfected in Escherichia coli BL21 (DE3) incubated for 2 hrs by competitive solid-phase assay
[2] = molecular target: T1, Galectin-1; experiment: Inhibition of asialofetuin binding to human recombinant Gal-1 transfected in Escherichia coli BL21 (DE3) incubated for 2 hrs by competitive solid-phase assay
[3] = molecular target: T1, Galectin-1; experiment: Binding affinity to human recombinant Gal-1 assessed as change in entropy by ITC analysis
[4] = molecular target: T1, Galectin-1; experiment: Binding affinity to human recombinant Gal-1 assessed as gibbs free energy change by ITC analysis
[5] = molecular target: T1, Galectin-1; experiment: Binding affinity to human recombinant Gal-1 assessed as change in enthalpy by ITC analysis
[6] = molecular target: T1, Galectin-1; experiment: Binding affinity to human recombinant Gal-1 assessed as association constant by ITC analysis
[7] = molecular target: T1, Galectin-1; experiment: Binding affinity to human recombinant Gal-1 assessed as dissociation constant by ITC analysis

T1 sequence (P09382 whole entry): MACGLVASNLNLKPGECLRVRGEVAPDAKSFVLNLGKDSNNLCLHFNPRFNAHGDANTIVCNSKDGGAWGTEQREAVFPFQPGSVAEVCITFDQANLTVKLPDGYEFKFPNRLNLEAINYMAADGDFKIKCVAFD

SMILES | Ratio IC50 [1] | IC50 [2] [mM] | deltaS [3] [J/mol.K] | deltaG [4] [kJ/mol] | deltaH [5] [kJ/mol] | Ka [6] | Kd [7] [mM]
O=[N+]([O-])c1ccc(O[C@@H]2O[C@H](CO)[C@@H](O[C@@H]3O[C@H](CO)[C@H](O)[C@H](OS(=O)(=O)O)[C@H]3O)[C@H](O)[C@H]2O)cc1 | 0.79 | 5.9 |  |  |  |  | 
COC(=O)c1ccc(O[C@@H]2O[C@H](CO)[C@@H](O[C@@H]3O[C@H](CO)[C@H](O)[C@H](O)[C@H]3O)[C@H](O)[C@H]2O)c(OC)c1 | 1.02 | 7.5 |  |  |  |  | 
C#CCO[C@@H]1O[C@H](CO)[C@@H](O[C@@H]2O[C@H](CO)[C@H](O)[C@H](OCC(=O)O)[C@H]2O)[C@H](O)[C@H]1NC(C)=O | 0.99 | 7.3 |  |  |  |  | 
O=[N+]([O-])c1ccc(O[C@@H]2O[C@H](CO)[C@@H](O[C@@H]3O[C@H](CO)[C@H](O)[C@H](O)[C@H]3O)[C@H](O)[C@H]2O)cc1 | 0.89 | 6.6 |  |  |  |  | 
CC(=O)N[C@H]1[C@H](Oc2ccc([N+](=O)[O-])cc2)O[C@H](CO)[C@@H](O[C@@H]2O[C@H](CO)[C@H](O)[C@H](OS(=O)(=O)O)[C@H]2O)[C@@H]1O | 0.83 | 6.1 |  |  |  |  | 
COc1cc(C(=O)OC(C)(C)C)ccc1O[C@@H]1O[C@H](CO)[C@@H](O[C@@H]2O[C@H](CO)[C@H](O)[C@H](OS(=O)(=O)O)[C@H]2O)[C@H](O)[C@H]1O | 0.43 | 3.2 | -21.3 | -22.5 | -29 | 8.6 10^3/M | 0.117
COc1cc(CCC(=O)O)ccc1O[C@@H]1O[C@H](CO)[C@@H](O[C@@H]2O[C@H](CO)[C@H](O)[C@H](O)[C@H]2O)[C@H](O)[C@H]1O | 0.56 | 4.1 |  |  |  |  | 
CC(=O)N[C@H]1[C@H](Oc2ccc([N+](=O)[O-])cc2)O[C@H](CO)[C@@H](O[C@@H]2O[C@H](CO)[C@H](O)[C@H](O)[C@H]2O)[C@@H]1O | 0.78 | 5.7 |  |  |  |  | 
CO[C@@H]1O[C@H](CO)[C@@H](O[C@@H]2O[C@H](CO)[C@H](O)[C@H](O)[C@H]2O)[C@H](O)[C@H]1O |  | 7.4 |  |  |  |  | 
COc1cc(CO)ccc1O[C@@H]1O[C@H](CO)[C@@H](O[C@@H]2O[C@H](CO)[C@H](O)[C@H](O)[C@H]2O)[C@H](O)[C@H]1O | 1.46 | 10.8 |  |  |  |  | 
CC(=O)N[C@H]1C(O)O[C@H](CO)[C@@H](O[C@@H]2O[C@H](CO)[C@H](O)[C@H](O)[C@H]2O)[C@@H]1O (stereo not given in full) | 1.02 | 7.5 |  |  |  |  | 
OC[C@H]1O[C@@H](O[C@H]2[C@H](O)[C@@H](O)C(O)O[C@@H]2CO)[C@H](O)[C@@H](O)[C@H]1O (stereo not given in full) |  |  | -28 |  | -28.4 | 3.2 10^3/M | 
COc1cc(C=O)ccc1O[C@@H]1O[C@H](CO)[C@@H](O[C@@H]2O[C@H](CO)[C@H](O)[C@H](OS(=O)(=O)O)[C@H]2O)[C@H](O)[C@H]1O | 0.82 | 6.1 |  |  |  |  | 
C#CCO[C@@H]1O[C@H](CO)[C@@H](O[C@@H]2O[C@H](CO)[C@H](O)[C@H](O)[C@H]2O)[C@H](O)[C@H]1NC(C)=O | 1.45 | 10.7 |  |  |  |  | 
COc1cc(C(=O)OC(C)(C)C)ccc1O[C@@H]1O[C@H](CO)[C@@H](O[C@@H]2O[C@H](CO)[C@H](O)[C@H](O)[C@H]2O)[C@H](O)[C@H]1O | 0.48 | 3.6 | -23.1 | -21 | -27.9 | 4.9 10^3/M | 0.206
C#CCO[C@@H]1O[C@H](CO)[C@@H](O[C@@H]2O[C@H](CO)[C@H](O)[C@H](O[C@]3(C(=O)O)C[C@H](O)[C@@H](NC(C)=O)[C@H]([C@@H](O)[C@H](O)CO)O3)[C@H]2O)[C@H](O)[C@H]1NC(C)=O | 1.31 | 9.7 |  |  |  |  | 
C#CCO[C@@H]1O[C@H](CO)[C@@H](O[C@@H]2O[C@H](CO)[C@H](O)[C@H](O)[C@H]2O)[C@H](O)[C@H]1O | 0.83 | 6.1 |  |  |  |  | 
C#CCO[C@@H]1O[C@H](CO)[C@@H](O[C@@H]2O[C@H](CO)[C@H](O)[C@H](OS(=O)(=O)O)[C@H]2O)[C@H](O)[C@H]1NC(C)=O | 0.65 | 4.8 |  |  |  |  | 
COc1cc(/C=C/C(=O)O)ccc1O[C@@H]1O[C@H](CO)[C@@H](O[C@@H]2O[C@H](CO)[C@H](O)[C@H](O)[C@H]2O)[C@H](O)[C@H]1O | 0.65 | 4.8 |  |  |  |  | 
COc1cc(C(=O)O)ccc1O[C@@H]1O[C@H](CO)[C@@H](O[C@@H]2O[C@H](CO)[C@H](O)[C@H](OS(=O)(=O)O)[C@H]2O)[C@H](O)[C@H]1O | 0.53 | 3.9 | -6.2 | -20.2 | -22.1 | 3.5 10^3/M | 0.284
